Where two headings read alike, the source gives them in different places.
Key:
[1] = test system: HCC or solid tumors with positive FGFR4 and KLB expression; settings: cited from earlier work
[2] = test system: triple positive HCC tumors; settings: cited from earlier work
[3] = test system: all other kinases (including FGFR1, FGFR2, and FGFR3); settings: versus FGFR4; cited from earlier work
[4] = Procedure: Secondary endpoints included PK parameters (e.g., maximum observed concentration [C max] and area under the concentration‐time curve [AUC]). Secondary endpoints included objective response rate (ORR), disease control rate (DCR), and duration of response (DOR) as assessed by investigator per RECIST v1.1. Tumor responses were assessed according to RECIST v1.1; computerized tomography scanning or magnetic resonance imaging was performed every 6 weeks in the first 48 weeks, and every 12 weeks thereafter. Secondary endpoints also included safety and tolerability (adverse events [AEs] as defined by the National Cancer Institute‐Common Terminology Criteria for Adverse Events CTCAE v5.0) and exploratory biomarkers (total bile acids, 7‐α‐hydroxy‐4‐cholesten‐3‐one [C4] and circulating FGF19). Safety follow‐up visit was performed within 30 days (±5 days) and 90 days (±7 days) after the last dose of the study treatment.
All patients who received at least one dose of the study treatment in the Phase 1 part of the study were included in the safety and efficacy analyses. Dose escalation and MTD assessment were primarily based on DLTs which occurred within the 28‐day observation period. Descriptive statistics were used for demographics, safety, and efficacy data. The number of patients who experienced DLTs (within and outside of the 28‐day DLT assessment period) was tabulated for each dose level. The sample size of patients required for dose escalation were determined based on the ‘3+3’ design and DLTs observed as the trial progressed.

[5] = DLT observation / MTD and RP2D determination (3+3 dose escalation); format: in vivo
Text: (§1) After a screening period of up to 28 days, eligible patients received treatment according to a standard “3+3” dose escalation design. […] Treatment continued until unacceptable toxicity, progressive disease, and/or at the discretion of the Investigator or patient's withdrawal of consent.

[6] = Phase 1 plasma pharmacokinetics of EVER4010001; format: in vivo, human
Text: as §1

[7] = CFGF401X2101 trial, Grade ≥3 TEAE
[8] = 40 mg BID (N=3) + pembrolizumab
[9] = 60 mg BID (N=3) + pembrolizumab
[10] = 80 mg BID (N=6) + pembrolizumab
[11] = 100 mg BID (N=7) + pembrolizumab
[12] = Cycle 1, Day 1, 40 mg BID (N=3) + pembrolizumab
[13] = Cycle 1, Day 1, 60 mg BID (N=3) + pembrolizumab
[14] = Cycle 1, Day 1, 80 mg BID (N=6) + pembrolizumab
[15] = Cycle 1, Day 1, 100 mg BID (N=7) + pembrolizumab
[16] = Cycle 1, Day 8, 40 mg BID (N=3) + pembrolizumab

Structure (SMILES): COCCNc1cc(NC(=O)N2CCCc3cc(CN4CCN(C)CC4=O)c(C=O)nc32)ncc1C#N [EVER4010001, roblitinib]
- increased ALT [1, 7]: 15.0%
- increased AST [1, 7]: 18.8%
- increased ALT ([1]; CFGF401X2101 trial, any grade): 43.8%
- ORR ([1]; CFGF401X2101 trial): 8%
- diarrhea suspected to be related to the study drug ([1]; CFGF401X2101 trial): 69%
- recommended Phase 2 dose (RP2D) ([1]; QD doses 50-150 mg, fasted or unfasted patients): 120 mg QD
- geometric mean Cmax (geometric coefficient of variation %) ([1]; RP2D 120 mg FGF401 QD, CFGF401X2101 trial): 1120 ng/mL
- recommended Phase 2 dose (RP2D) ([1]; in combination with spartalizumab 300 mg Q3W): 120 mg QD
- antitumor effect in preclinical models [2]: induced regression/stasis
- selectivity against all other kinases (including FGFR1, FGFR2, and FGFR3) [3]: > 1000 fold
- Grade 5 TEAEs related to EVER4010001 and/or pembrolizumab [4, 8]: 0 n (%)
- SAEs: Death [4, 8]: 0 n (%)
- Grade 5 TEAEs related to EVER4010001 and/or pembrolizumab [4, 9]: 0 n (%)
- SAEs: Death [4, 9]: 1 (33.3) n (%)
- Grade 5 TEAEs related to EVER4010001 and/or pembrolizumab [4, 10]: 0 n (%)
- SAEs: Death [4, 10]: 0 n (%)
- Grade 5 TEAEs related to EVER4010001 and/or pembrolizumab [4, 11]: 0 n (%)
- SAEs: Death [4, 11]: 0 n (%)
- Grade 5 TEAEs related to EVER4010001 and/or pembrolizumab ([4]; Total (N=19)): 0 n (%)
- SAEs: Death ([4]; Total (N=19)): 1 (5.3) n (%)
- Any TEAE: Alanine aminotransferase increased ([4]; human, in vivo): 9 (47.4) n (%)
- Any TEAE: Anemia ([4]; human, in vivo): 9 (47.4) n (%)
- Any TEAE: Aspartate aminotransferase increased ([4]; human, in vivo): 11 (57.9) n (%)
- Any TEAE: Gastrointestinal disorders ([4]; human, in vivo): 19 n (%)
- EVER4010001-related TEAEs ([4]; human, in vivo): 19 (100) n (%)
- EVER4010001-related TEAEs: Increased Blood Alkaline Phosphatase ([4]; human, in vivo): 5 (26.3) n (%)
- SAEs: Device dislocation ([4]; human, in vivo): 1 (5.3) n (%)
- SAEs: Product issues ([4]; human, in vivo): 1 (5.3) n (%)
- TEAEs leading to discontinuation: Aspartate aminotransferase increased ([4]; human, in vivo): 2 [10.5%] n (%)
- TEAEs leading to discontinuation: Blood bilirubin increased ([4]; human, in vivo): 1 [5.3%] n (%)
- TEAEs resulting in temporary interruption of EVER4010001 ([4]; human, in vivo): 4 [21.0%] n (%)
- Any TEAE: Anemia ([4]; human, in vivo, 93.4 days): 0 n (%)
- Any TEAE: Diarrhea ([4]; human, in vivo, 93.4 days): 1 (5.3) n (%)
- SAEs: Gastrointestinal disorders ([4]; human, in vivo, 93.4 days): 1 (5.3) n (%)
- SAEs: General disorders and administration site conditions ([4]; human, in vivo, 93.4 days): 1 (5.3) n (%)
- SAEs: Pancreatitis ([4]; human, in vivo, 93.4 days): 1 (5.3) n (%)
- TEAEs leading to discontinuation: Aspartate aminotransferase increased ([4]; human, in vivo, 93.4 days): 2 (10.5) n (%)
- TEAEs leading to discontinuation: Blood bilirubin increased ([4]; human, in vivo, 93.4 days): 1 (5.3) n (%)
- TEAEs leading to discontinuation: Investigations ([4]; human, in vivo, 93.4 days): 3 (15.8) n (%)
- TEAEs leading to discontinuation: Vascular disorders ([4]; human, in vivo, 93.4 days): 1 (5.3) n (%)
- TEAEs resulting in temporary interruption of EVER4010001 ([4]; human, in vivo, 93.4 days): 4 (21.0) n (%)
- DLTs during whole study: Alanine aminotransferase increased ([5]; human, in vivo): 1 (5.9) n (%)
- DLTs during whole study: Aspartate aminotransferase increased ([5]; human, in vivo): 2 (11.8) n (%)
- Total DLTs during whole study ([5]; human, in vivo): 2 (11.8) n (%)
- DLTs within 28 days: Alanine aminotransferase increased ([5]; human, in vivo, 28 days): 1 (5.9) n (%)
- DLTs within 28 days: Aspartate aminotransferase increased ([5]; human, in vivo, 28 days): 2 (11.8) n (%)
- Total DLTs within 28 days ([5]; human, in vivo, 28 days): 2 (11.8) n (%)
- maximum tolerated dose (MTD) ([5]; in combination with pembrolizumab 200 mg Q3W): 80 mg BID
- Geometric mean AUC0–t (geometric CV%) [6, 12]: 2363.64 (9.59) Hour·ng/ml
- Mean t1/2 (SD) [6, 12]: 4.92 (0.16) Hour
- Median tmax (Min, Max) [6, 12]: 0.550 (0.52, 1.05) Hour
- Geometric mean AUC0–t (geometric CV%) [6, 13]: 4464.03 (37.96) Hour·ng/ml
- Mean t1/2 (SD) [6, 13]: 4.00 (0.36) Hour
- Median tmax (Min, Max) [6, 13]: 0.970 (0.93, 1.05) Hour
- Geometric mean AUC0–t (geometric CV%) [6, 14]: 3774.38 (14.53) Hour·ng/ml
- Mean t1/2 (SD) [6, 14]: 4.64 (1.44) Hour
- Median tmax (Min, Max) [6, 14]: 1.030 (0.23, 2.00) Hour
- Geometric mean AUC0–t (geometric CV%) [6, 15]: 5459.69 (8.34) Hour·ng/ml
- Mean t1/2 (SD) [6, 15]: 4.22 (0.69) Hour
- Median tmax (Min, Max) [6, 15]: 1.000 (0.52, 2.05) Hour
- Geometric mean AUC0–t (geometric CV%) [6, 16]: 2084.60 (35.99) Hour·ng/ml
- Mean Rac, drug accumulation ratio (SD) [6, 16]: 1.24 (0.25)

Source: paper PMC10134273 (Cancer Medicine, 2023)
